{
  "source": "patent US20240261272A1",
  "about": "“LPA1 ANTAGONISTS FOR TREATING INTERSTITIAL LUNG DISEASE” (Bristol-Myers Squibb Company, priority 2022, published 2024)",
  "experiment": "Phase 2 study, PPF cohort: safety, adverse events, prespecified blood pressure reduction criteria, dose reductions",
  "type": "in vivo, human",
  "settings": "for Asymptomatic blood pressure reduction, patients (%) / Asymptomatic blood pressure reduction, patients, no. / Symptomatic blood pressure reduction, patients (%) / Symptomatic blood pressure reduction, patients, no.: prespecified criteria",
  "description": "A total of 123 participants with PPF were randomized. Participants (age ≥21 years) were randomized (1:1:1) to receive 30 mg or 60 mg Compound A or PBO twice daily for 26 weeks. […] Immunosuppressive medications (mycophenolate mofetil, mycophenolic acid, azathioprine and/or tacrolimus) were permitted only if dosing is stable for ≥6 months prior to screening. If receiving antifibrotic agents pirfenidone or nintedanib, patients had to receive a stable dosage for ≥3 months prior to screening and during the screening period; if not receiving pirfenidone or nintedanib, patients had to be naive to both drugs or not have received either 4 weeks prior to Day 1. A total of 47 (38.2%) subjects were receiving antifibrotic treatment (with or without immunosuppression therapy). Of those subjects, 34 were being treated with nintedanib and 13 with pirfenidone. Participants were stratified by usual interstitial pneumonia (UIP) pattern (presence versus absence) and background therapy (antifibrotics +/−ILD-targeted immunosuppression versus ILD-targeted immunosuppression alone versus none).UIP pattern was present in 52% of subjects and unclassifiable ILD was he most common disease categorization.\nPatient is experiencing any of the following, confirmed by retest within 15 minutes: • Seated systolic blood pressure <85 mmHg • Seated diastolic blood pressure <55 mmHg • Orthostatic hypotension\nPatient is experiencing symptoms that, in the investigator's opinion, could be associated with a reduction in blood pressure and is also experiencing at least one of the following, confirmed by retest within 15 minutes: • Seated systolic blood pressure <100 mmHg or seated diastolic blood pressure <60 mmHg • Decrease of seated systolic blood pressure of ≥20 mmHg from the previous visit or decrease of seated diastolic blood pressure of ≥10 mmHg from the previous visit • Orthostatic hypotension • Orthostatic tachycardia",
  "data": [
    {"smiles": "CCCN(C)C(=O)OCc1c(-c2ccc(O[C@H]3CCC[C@H](C(=O)O)C3)c(C)n2)nnn1C", "note": "[Compound A, (1S,3S)-3-((2-methyl-6-(1-methyl-5-(((methyl(propyl)carbamoyl)-oxy)methyl)-1H-1,2,3-triazol-4-yl)pyridin-3-yl)oxy)cyclohexane-1-carboxylic acid]", "values": [
      {"measurement": "day-1 blood pressure reduction (in words)", "value": "dose dependent day-1 blood pressure reduction"},
      {"measurement": "hepatobiliary toxicity (in words)", "value": "No hepatobiliary toxicity"},
      {"measurement": "tolerability and safety findings (in words)", "value": "well-tolerated, demonstrated no unexpected safety findings"},
      {"measurement": "Dose dependent low BP thresholds (\"events\")", "setting": "30 mg", "value": 30, "unit": "%"},
      {"measurement": "≥1 TEAE related to study drug, no.", "setting": "30 mg (n = 40)", "value": 7},
      {"measurement": "≥1 TEAE, no.", "setting": "30 mg (n = 40)", "value": 33},
      {"measurement": "≥1 TESAE, no.", "setting": "30 mg (n = 40)", "value": 4},
      {"measurement": "≥1 TEAE related to study drug, no.", "setting": "60 mg (n = 42)", "value": 11},
      {"measurement": "≥1 TEAE, no.", "setting": "60 mg (n = 42)", "value": 28},
      {"measurement": "≥1 TESAE, no.", "setting": "60 mg (n = 42)", "value": 5},
      {"measurement": "Orthostatic hypotension (asymptomatic and symptomatic), comparison of groups (in words)", "setting": "60 mg group", "value": "higher in the 60 mg group than for other groups"},
      {"measurement": "Dose reductions, patients (%)", "setting": "30-mg Compound A (n = 40)", "value": "(15.0) %"},
      {"measurement": "Dose reductions, patients, no.", "setting": "30-mg Compound A (n = 40)", "value": 6},
      {"measurement": "Orthostatic hypotension (under asymptomatic blood pressure reduction), patients (%)", "setting": "30-mg Compound A (n = 40)", "value": "(15.0) %"},
      {"measurement": "Orthostatic hypotension (under asymptomatic blood pressure reduction), patients, no.", "setting": "30-mg Compound A (n = 40)", "value": 6},
      {"measurement": "Orthostatic hypotension (under symptomatic blood pressure reduction), patients (%)", "setting": "30-mg Compound A (n = 40)", "value": "(2.5) %"},
      {"measurement": "Orthostatic hypotension (under symptomatic blood pressure reduction), patients, no.", "setting": "30-mg Compound A (n = 40)", "value": 1},
      {"measurement": "Asymptomatic blood pressure reduction, patients (%)", "setting": "30-mg Compound A (n = 40)", "value": "(22.5) %"},
      {"measurement": "Asymptomatic blood pressure reduction, patients, no.", "setting": "30-mg Compound A (n = 40)", "value": 9},
      {"measurement": "Symptomatic blood pressure reduction, patients (%)", "setting": "30-mg Compound A (n = 40)", "value": "(5.0) %"},
      {"measurement": "Symptomatic blood pressure reduction, patients, no.", "setting": "30-mg Compound A (n = 40)", "value": 2},
      {"measurement": "Dose reductions, patients (%)", "setting": "60-mg Compound A (n = 42)", "value": "(11.9) %"},
      {"measurement": "Dose reductions, patients, no.", "setting": "60-mg Compound A (n = 42)", "value": 5},
      {"measurement": "Orthostatic hypotension (under asymptomatic blood pressure reduction), patients (%)", "setting": "60-mg Compound A (n = 42)", "value": "(26.2) %"},
      {"measurement": "Orthostatic hypotension (under asymptomatic blood pressure reduction), patients, no.", "setting": "60-mg Compound A (n = 42)", "value": 11},
      {"measurement": "Orthostatic hypotension (under symptomatic blood pressure reduction), patients (%)", "setting": "60-mg Compound A (n = 42)", "value": "(9.5) %"},
      {"measurement": "Orthostatic hypotension (under symptomatic blood pressure reduction), patients, no.", "setting": "60-mg Compound A (n = 42)", "value": 4},
      {"measurement": "Asymptomatic blood pressure reduction, patients (%)", "setting": "60-mg Compound A (n = 42)", "value": "(31.0) %"},
      {"measurement": "Asymptomatic blood pressure reduction, patients, no.", "setting": "60-mg Compound A (n = 42)", "value": 13},
      {"measurement": "Symptomatic blood pressure reduction, patients (%)", "setting": "60-mg Compound A (n = 42)", "value": "(14.3) %"},
      {"measurement": "Symptomatic blood pressure reduction, patients, no.", "setting": "60-mg Compound A (n = 42)", "value": 6},
      {"measurement": "marked laboratory abnormalities (in words)", "setting": "among treatment groups", "value": "No notable imbalances in marked laboratory abnormalities among treatment groups"}
    ]}
  ]
}
